ChEMBL document CHEMBL3132843, “Discovery of novel inhibitors for human farnesyltransferase (hFTase) via structure-based virtual screening” (Medchemcomm, 2013)
pIC50: −log10 of the molar value.

Columns and labels:
MCF7 = assay: Cytotoxicity against human MCF7 cells after 48 hrs by MTT assay; format: functional, cell-based; details: MCF7, 48 h
[1] = target: Protein farnesyltransferase (Homo sapiens, UniProt P49354+P49356); assay: Inhibition of human FTase using farnesyl pyrophosphate as substrate by fluorescent assay; format: protein-complex assay

| SMILES | pIC50 (MCF7) | pIC50 [1] |
| --- | --- | --- |
| Cn1cncc1[C@@](N)(c1ccc(Cl)cc1)c1ccc2c(c1)c(-c1cccc(Cl)c1)cc(=O)n2C [TIPIFARNIB] | 5.51 | 8.52 |
| N#Cc1c(SCc2ccc(C(=O)O)cc2)nc2c(c1-c1ccccc1)CCC2 | < 4.00 | 5.25 |
| Cc1ccc(Oc2ncccc2NC(=O)CC(CC(=O)O)c2ccccc2)c2c1CCC2 (stereo unspecified) | < 4.00 | 4.87 |
| CC1=NN(c2ccccc2)C(=O)/C1=C/c1ccccc1OCc1ccc(C(=O)O)cc1 | 4.41 | 5.59 |
| O=C(O)C1CCCCC1C(=O)Nc1ccc(Oc2ccccc2)cc1 (stereo unspecified) | < 4.00 | 5.45 |
| CCOC(=O)c1c(C)oc2c1cc(NS(=O)(=O)c1ccc(C(=O)O)cc1)c1ccccc12 | 4.33 | 5.41 |
| O=C(c1ccc(Cl)cc1)N1N=C(c2c(-c3ccccc3)c3cc(Br)ccc3[nH]c2=O)CC1c1ccco1 (stereo unspecified) | 4.49 | 6.28 |
| O=C(O)c1ccc(/N=[N+](/[O-])c2ccccc2Sc2ccccc2C(=O)O)cc1Sc1ccccc1O | < 4.00 | 5.49 |
| COc1ccc(-c2cc(C(=O)OCC(=O)c3cccc4ccccc34)c3ccccc3n2)cc1 | < 4.00 | 6.43 |
| Cc1cccc(Oc2ccc(NC(=O)c3ccccc3C(=O)O)cc2)c1C | < 4.00 | 5.16 |
| COc1cccc(C2C(C(=O)/C=C/c3ccccc3)=C(O)C(=O)N2c2ccccc2)c1 (stereo unspecified) | < 4.00 | 5.84 |
| COCCN1C(=O)C(O)=C(C(=O)c2ccc(C)cc2)C1c1cccc(Oc2ccccc2)c1 (stereo unspecified) | < 4.00 | 5.06 |
| O=C(N/N=C\c1cn(Cc2ccc([N+](=O)[O-])cc2)c2ccccc12)c1cc2ccccc2o1 | < 4.00 | 6.85 |
| O=C(c1ccccc1)c1ccc(/N=C/c2cc([N+](=O)[O-])ccc2O)cc1 | < 4.00 | 4.96 |
| CCN(CC)c1ccc(/C=N/Nc2nc(NCc3ccco3)nc(Nc3ccc(OC)cc3)n2)c(OCc2ccc(Cl)cc2Cl)c1 | < 4.00 | 7.29 |
| Cc1ccc(Oc2ncccc2NC(=O)CCCC(=O)O)c2c1CCC2 | < 4.00 | 5.27 |
| Oc1ccc(NCc2cc(Cl)ccc2OCc2ccccc2F)cc1 | 4.91 | 5.38 |
| COc1cc(/C=C2\S/C(=N\c3ccccc3)N(Cc3ccco3)C2=O)ccc1OC(C)C(=O)O (stereo unspecified) | < 4.00 | 5.29 |
| COc1cc(CNc2ccc(O)cc2)cc(Cl)c1OCc1ccc(Cl)cc1 | 4.69 | 5.59 |
| Cc1ccc(OC(=O)c2ccc3c(c2)C(=O)N(c2cccc4ccccc24)C3=O)cc1 | < 4.00 | 6.36 |
| Cc1cncc(NC(c2cccc(OCc3ccccc3)c2)c2ccc3cccnc3c2O)c1 (stereo unspecified) | 4.85 | 7.31 |
| Oc1cccc2ccc(/C=C/c3ccccc3OCc3ccccc3Cl)nc12 | < 4.00 | 7.92 |
| Cc1c(Cc2ccccc2)sc(CC(=O)CCC(=O)O)c1C(N)=O | < 4.00 | 5.45 |
